From ChEMBL document CHEMBL5385875, “Tumor killing by a dietary curcumin mono-carbonyl analog that works as a selective ROS generator via TrxR inhibition” (Eur J Med Chem, 2023)
Activity calls are given as the source filed them. The rule behind the calls is not given here.

What was measured:
HT-1080 = assay: Cytotoxicity against human HT-1080 cells assessed as reduction in cell viability incubated for 48 hrs by MTT assay; type: functional, cell-based; details: HT-1080, 48 h
[1] = Selectivity index, ratio of IC50 for human MRC5 cells to IC50 for human NCI-H460 cells; type: toxicity; details: MRC5 cells versus NCI-H460 cells, read-out: Ratio IC50
NCI-H460 [2] = assay: Cytotoxicity against human NCI-H460 cells assessed as reduction in cell viability at 0.5 to 2 uM incubated for 48 hrs in presence of dithiothreitol by MTT assay; type: functional, cell-based; details: dose 0.5-2 µM
NCI-H460 [3] = assay: Cytotoxicity against human NCI-H460 cells assessed as reduction in cell viability at 0.5 to 2 uM incubated for 48 hrs in presence of alpha tocopherol by MTT assay; type: functional, cell-based; details: dose 0.5-2 µM
NCI-H460 [4] = assay: Cytotoxicity against human NCI-H460 cells assessed as reduction in cell viability at 0.5 to 2 uM incubated for 48 hrs in presence of BSO by MTT assay; type: functional, cell-based; details: dose 0.5-2 µM
NCI-H460 [5] = assay: Induction of intracellular ROS accumulation in human NCI-H460 cells at 1 to 2 uM measured after 6 hrs in presence of NAC by DCFH-DA dye based fluorescence assay; type: functional, cell-based; details: dose 1-2 µM
NCI-H460 [6] = assay: Induction of intracellular ROS accumulation in human NCI-H460 cells at 1 to 2 uM measured after 6 hrs in presence of VE by DCFH-DA dye based fluorescence assay; type: functional, cell-based; details: dose 1-2 µM
NCI-H460 [7] = assay: Cytotoxicity against human NCI-H460 cells assessed as reduction in cell viability at 0.5 to 1 uM measured after 48 hrs in presence of erastin by MTT assay; type: functional, cell-based; details: dose 0.5-1 µM
NCI-H460 [8] = assay: Induction of apoptosis in human NCI-H460 cells assessed as reduction of mitochondrial membrane potential at 0.5 to 2 uM incubated for 12 to 36 hrs in presence of NAC by JC-1 staining based flow cytometry analysis; type: functional, cell-based; details: dose 0.5-2 µM, time 12-36 hrs
NCI-H460 [9] = assay: Downregulation of Bcl-2 expression in human NCI-H460 cells at 1 to 2 uM measured after 48 hrs by immunoblot analysis; type: functional, cell-based; details: dose 1-2 µM
NCI-H460 [10] = assay: Upregulation of Bax expression in human NCI-H460 cells at 1 to 2 uM measured after 48 hrs by immunoblot analysis; type: functional, cell-based; details: dose 1-2 µM
NCI-H460 [11] = assay: Upregulation of caspase-9 activation in human NCI-H460 cells at 1 to 2 uM measured after 48 hrs by immunoblot analysis; type: functional, cell-based; details: dose 1-2 µM
NCI-H460 [12] = assay: Upregulation of caspase-3 activation in human NCI-H460 cells at 1 to 2 uM measured after 48 hrs by immunoblot analysis; type: functional, cell-based; details: dose 1-2 µM
NCI-H460 [13] = assay: Induction of ferroptosis in human NCI-H460 cells assessed as increase in MDA levels at 2 uM measured after 40 hrs in presence of VE by MDA assay; type: functional, cell-based
NCI-H460 [14] = assay: Induction of ferroptosis in human NCI-H460 cells assessed as fold increase in MDA levels at 2 uM measured after 40 hrs by MDA assay; type: functional
NCI-H460 [15] = assay: Induction of ferroptosis in human NCI-H460 cells assessed as increase in intracellular […] by measuring increase in red fluorescence intensity at 0.25 to 0.5 uM incubated for 40 hrs by C11-BODIPY staining based microscopy analysis; type: functional, cell-based; details: dose 0.25-0.5 µM
NCI-H460 [16] = assay: Induction of ferroptosis in human NCI-H460 cells assessed as increase in MDA levels at 2 uM measured after 40 hrs in presence of erastin by MDA assay; type: functional, cell-based
NCI-H460 [17] = assay: Induction of ferroptosis in human NCI-H460 cells assessed as reduction in GPX4 protein expression measured after 24 hrs by immunoblot analysis; type: functional, cell-based; details: dose 1-2 µM
[18] = Toxicity in BALB/c nude mouse assessed as animal death at 5 to 15 mg/kg, ip measured every two days for 27 days; type: organism-based; details: in vivo, 648 h, dose 5-15 mg/kg, time 27 day
[19] = Toxicity in BALB/c nude mouse assessed as effect on body weight at 5 to 15 mg/kg, ip measured every two days for 27 days; type: organism-based; details: in vivo, 648 h, dose 5-15 mg/kg, time 27 day
[20] = Toxicity in BALB/c nude mouse assessed as effect on hair colour at 5 to 15 mg/kg, ip measured every two days for 27 days; type: organism-based; details: in vivo, 648 h, dose 5-15 mg/kg, time 27 day
[21] = Toxicity in BALB/c nude mouse assessed as effect on animal diet status at 5 to 15 mg/kg, ip measured every two days for 27 days; type: organism-based; details: in vivo, 648 h, dose 5-15 mg/kg, time 27 day
[22] = Toxicity in BALB/c nude mouse assessed as effect on liver at 5 to 15 mg/kg, ip measured every two days for 27 days; type: organism-based; details: in vivo, 648 h, dose 5-15 mg/kg, time 27 day
[23] = Toxicity in BALB/c nude mouse assessed as effect on kidney at 5 to 15 mg/kg, ip measured every two days for 27 days; type: organism-based; details: in vivo, 648 h, dose 5-15 mg/kg, time 27 day
[24] = Toxicity in BALB/c nude mouse assessed as effect on heart at 5 to 15 mg/kg, ip measured every two days for 27 days; type: organism-based; details: in vivo, 648 h, dose 5-15 mg/kg, time 27 day
[25] = Toxicity in BALB/c nude mouse assessed as effect on kidney at 5 to 15 mg/kg, ip measured every two days for 27 days by H and E staining based analysis; type: organism-based; details: in vivo, 648 h, dose 5-15 mg/kg, time 27 day
[26] = biological target: T1, Thioredoxin reductase (Homo sapiens) (UniProt Q16881+Q9NNW7+Q86VQ6); assay: Inhibition of TrxR in human NCI-H460 cells measured after 6 hrs by fluorescence microscopy based analysis; type: cell-based; details: dose 0.5-2 µM
[27] = biological target: T1, Thioredoxin reductase (Homo sapiens); assay: Inhibition of TrxR in human MRC5 cells at 2 uM measured after 6 hrs by fluorescence microscopy based analysis; type: cell-based
[28] = biological target: T1, Thioredoxin reductase (Homo sapiens); assay: Inhibition of TrxR in human NCI-H460 cells measured after 6 hrs by DTNB reduction assay relative to control; type: cell-based; details: dose 0.5-2 µM
NCI-H460 [29] = assay: Inhibition of TrxR protein expression in human NCI-H460 cells measured after 6 hrs by immunoblot analysis; type: functional, cell-based; details: dose 0.5-2 µM
NCI-H460 [30] = assay: Antitumor activity against human NCI-H460 cells xenografted in BALB/c nude mouse assessed as induction of apoptosis at 5 to 15 mg/kg by H and E staining based analysis; type: functional, organism-based; details: dose 5-15 mg/kg

O=C1/C(=C/c2cccc(C(F)(F)F)c2)CNC/C1=C\c1cccc(C(F)(F)F)c1
IC50 (HT-1080): 930 nM
selectivity ratio [1]: 32
Activity (NCI-H460 [2]): inactive
Activity (NCI-H460 [3]): inactive
Activity (NCI-H460 [4]): Active
Activity (NCI-H460 [5]): inactive
Activity (NCI-H460 [6]): inactive
Activity (NCI-H460 [7]): Active
Activity (NCI-H460 [8]): inactive
Activity (NCI-H460 [9]): Active
Activity (NCI-H460 [10]): Active
Activity (NCI-H460 [11]): Active
Activity (NCI-H460 [12]): Active
Activity (NCI-H460 [13]): inactive
fold change (FC) (NCI-H460 [14]): 3.5
Activity (NCI-H460 [15]): Active
Activity (NCI-H460 [16]): Active
Activity (NCI-H460 [17]): Dose-Dependent Effect
Activity [18]: Non-Toxic
Activity [19]: Non-Toxic
Activity [20]: Non-Toxic
Activity [21]: Non-Toxic
Activity [22]: Non-Toxic
Activity [23]: Non-Toxic
Activity [24]: Non-Toxic
Activity [25]: Non-Toxic
inhibition [26]: Dose-Dependent Effect
inhibition [27]: inactive
inhibition [28]: Dose-Dependent Effect
inhibition (NCI-H460 [29]): Dose-Dependent Effect
Activity (NCI-H460 [30]): Active
